Biological target: Recombinant human Mat2a (Homo sapiens (Human), UniProt P31153)
Test: Determination of Mat2A activity: 384 well format absorbance-based Mat2A inhibition assay
Type: biochemical
Conditions: 12.5 nM Mat2A, 100 μM ATP and Methionine, 2% DMSO, 120 minutes at RT, Biomol Green, absorbance at 635 nm
Protocol: Determination of Mat2A Activity
Measurement of Mat2A inhibition is performed in 384 well format absorbance-based assay.
Recombinant human Mat2a (12.5 nM) and serial diluted compounds in DMSO (range of concentrations from 10 μM to […]) or controls (DMSO) are incubated for 15 minutes at room temperature (RT) in assay buffer containing 50 mM HEPES pH 7.5, 50 mM KCl, 50 mM MgCl2, 0.01% Tween 20 and 10 mM DTT. The reaction is initiated by the addition of the combined substrates ATP and Methionine, each at a final concentration of 100 μM. Final assay condition are 12.5 nM Mat2A, 100 μM ATP and Methionine Substrates and 2% DMSO. After 120 minutes of incubation at RT, the reaction is stopped by the addition of Biomol Green. The absorbance signal is measured at λ=635 nm with a multiplate reader (BMG Pherastar reader or equivalent) after 30 min of equilibration at RT.

Chain of Recombinant human Mat2a (P31153 whole entry): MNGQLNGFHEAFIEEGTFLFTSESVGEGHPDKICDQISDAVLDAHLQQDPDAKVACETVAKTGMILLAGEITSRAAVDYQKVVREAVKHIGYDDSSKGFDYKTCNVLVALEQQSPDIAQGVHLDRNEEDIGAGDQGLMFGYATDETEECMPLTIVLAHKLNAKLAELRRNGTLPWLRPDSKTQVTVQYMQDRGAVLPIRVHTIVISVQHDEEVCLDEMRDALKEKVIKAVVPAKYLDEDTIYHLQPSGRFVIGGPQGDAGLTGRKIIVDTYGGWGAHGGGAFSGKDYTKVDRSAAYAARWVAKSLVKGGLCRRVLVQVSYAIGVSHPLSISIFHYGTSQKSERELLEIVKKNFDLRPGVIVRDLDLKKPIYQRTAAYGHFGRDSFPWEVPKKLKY

Compound `COc1ncccc1C(=O)n1nc(N)c2ccc(C3CC3)nc21` [Example 75, (3-amino-6-cyclopropyl-1H-pyrazolo[3,4-b]pyridin-1-yl)(2-methoxypyridin-3-yl)methanone] has an IC50 of 26 nM.
`Nc1nn(C(=O)c2cccnc2Cl)c2nc(C3CC3)ccc12` [Example 76, (3-amino-6-cyclopropyl-1H-pyrazolo[3,4-b]pyridin-1-yl)(2-chloropyridin-3-yl)methanone] gave an IC50 of 17 nM.
`Nc1nn(C(=O)c2cccnc2C(F)(F)F)c2nc(C3CC3)ccc12` [Example 77, (3-amino-6-cyclopropyl-1H-pyrazolo[3,4-b]pyridin-1-yl)(2-(trifluoromethyl)pyridin-3-yl)methanone] was tested, and the IC50 was 31 nM.
For `Cc1nnccc1C(=O)n1nc(N)c2ccc(C3CC3)nc21` [Example 78, (3-amino-6-cyclopropyl-1H-pyrazolo[3,4-b]pyridin-1-yl)(3-methylpyridazin-4-yl)methanone], the IC50 was 200 nM.
With `Cc1nscc1C(=O)n1nc(N)c2ccc(C3CC3)nc21` [Example 79, (3-amino-6-cyclopropyl-1H-pyrazolo[3,4-b]pyridin-1-yl)(3-methylisothiazol-4-yl)methanone] the IC50 was 150 nM.
